Laboratory results as given in patent US20250073202A1, “METHODS TO TREAT RENAL DISORDERS USING CALCIUM CHANNEL INHIBITORS” (The Trustees of Indiana University, priority 2018, published 2025).
Entries after “also recorded” stand apart in the source; their conditions may differ. Marks after values point to notes of the source that are not given here.

Columns and labels:
[1] = tested on: renal ischemia reperfusion injury; experiment: Bilateral renal ischemia/reperfusion (I/R) injury in rats, 24 hours after reperfusion (Study II); assay type: in vivo, rat
Description: All studies used male Sprague-Dawley rats (250-300 g) that were purchased from Envigo (Indianapolis, IN). Rats were anesthetized with a cocktail of ketamine (100 mg·kg^−1, KetoVed, Vedco Inc, St. Joseph, MO) and xylazine (50 mg·kg^−1, AnaSed, Lloyd Inc, Shenandoah IA). Rats were placed on a heated surgical table to maintain body temperature. A midline incision and either unilateral (left) or bilateral renal ischemia (as indicated in Results) was induced by applying micro-aneurism clamps on the renal pedicles for a period of 40 min. Re-establishment of perfusion was verified by visual examination following removal of the clamps. Rats were provided post-operative analgesia using buprenorphine-SR (1 mg·kg^−1).
(§1) Rats were allowed to recover for various periods of time as described in the Results. In Study I, lymphocytes were studied in vitro after recovery for either 2 or 7 days following I/R or sham surgery for evaluation of function in vitro or for FACS analysis. In Study II, the effect of SOCE on kidney injury was studied with the inhibitor YM58483/BPT2 (N-[4-[3,5-Bis(trifluoromethyl)-1H-pyrazol-1-yl]phenyl]-4-methyl-1,2,3-thiadiazole-5-carboxamide; Tocris/Bio-Techne Minneapolis, MN). Rats were pretreated p.o. 2-3 hours prior to surgery with YM58483.BPT2 (1 mg·kg^−1) in sugar-free chocolate pudding following dilution in 100% EtOH, at, a dose previously shown to affect T cell activation in rats. In some experiments, rats were also treated with the IL17Rc (150 ng/day i.p; R&D Systems). In addition, one experiment utilized a model of rhabdomyolysis, induced by injection of 50% glycerol (10 ml/kg) into the hindlimb muscle of rats following 16 hours of water restriction.
To measure creatinine, tail blood was collected in heparin containing tubes and centrifuged to collect plasma. Plasma creatinine was measured using a Pointe Scientific Analyzer and Creatinine Assay reagents using methods outlined by the manufacturer (Pointe Scientific, Canton MI). Urine was collected for 24 hours by placing rats in metabolic cages and urine volume was determined gravimetrically. Urine creatinine was measured using a colorimetric assay adopted for microplate readers. Creatinine clearance was measured using UCr*V/PCr. […]
(§2) Freshly harvested kidneys were minced and digested in liberase (2 μg/ml. Roche, Indianapolis IN) for 15 min at 37° C. using Gentle MACs (Miltenyli, San Diego, CA). The digested tissue was filtered through a 100-μm mesh and washed with RPMI containing 10% fetal bovine serum (Invitrogen). Mononuclear cells were isolated using Percol (Sigma) density gradient centrifugation.
(§3) To evaluate protein expression of IL17 or Orai1, Orai2 or Orai3, cells were restimulated with PMA and ionomycin for 6 hours in the presence of monensin (Golgistop, 1 μg·ml, BD Biosciences) permeabilized with saponin ([…]) and stained with relevant antibody. Cells were scanned using flow cytometry (FACSCalibur, BD Biosciences, San Jose, CA) and scans were analyzed using Flowjo software (Tree Star, Ashland, OR).
The effect of SOCE on early ischemic kidney injury was studied with the inhibitor YM58483/BPT2 (N-[4-[3,5-Bis(trifluoromethyl)-1 H-pyrazol-1-yl]phenyl]-4-methyl-1,2,3-thiadiazole-5-carboxamide; Tocris/Bio-Techne Minneapolis, MN). Rats were pretreated 2-3 hours prior to surgery, p.o. in sugar-free chocolate pudding following dilution in 100% EtOH, at 1 mg·kg^−1, a dose previously shown affect T cell activation in rats. To evaluate if SOCE influences Th17 cells in AKI, rats were fed YM58483/BPT2 approximately 2 hours prior to […] and reperfusion. […] YM58483/2BPT2 also attenuated the infiltration of total CD4+ and CD8+ T-cells, B-cells, and dendritic cells following I/R (FIGS. 3C, 3D, 3E, and 3F).

[2] = tested on: glycerol-induced kidney injury; experiment: Glycerol-induced kidney injury (rhabdomyolysis model of AKI) in rats, 24 hours following injection; assay type: in vivo, rat
Description: as §1
To measure creatinine, tail blood was collected in heparin containing tubes and centrifuged to collect plasma. Plasma creatinine was measured using a Pointe Scientific Analyzer and Creatinine Assay reagents using methods outlined by the manufacturer (Pointe Scientific, Canton MI). Urine was collected for 24 hours by placing rats in metabolic cages and urine volume was determined gravimetrically. Urine creatinine was measured using a colorimetric assay adopted for microplate readers. Creatinine clearance was measured using UCr*V/PCr.
as §2, §3

AKI-primed CD4+ cells = experiment: Fura-2 imaging of intracellular Ca2+ responses in AKI-primed CD4+ cells; assay type: cell-based, rat; conditions: superfusate with Ang II and elevated Na+; to levels similar to sham
Description: To assess Ca^2+ responses, fura2 imaging was performed. Briefly, isolated CD4+ T cells were loaded with fura-2AM (2.5 μM, Sigma, St. Louis, MO) for 45 min, washed, placed on poly-lysine (Sigma) coated coverslips and placed in a superfusion chamber with physiological salt solution (PSS) containing 2 mM Ca^2+. The chamber was mounted on an inverted epifluorescence microscope and signal measured with alternating excitation at 340 and 380 nm and emission at 510 nm using the InCa^2+-imaging system (Intracellular Imaging Systems, Cincinnati, OH). Data were acquired at 1.5 Hz and representative tracings were smoothed to the 10 nearest neighbor points using GraphPad Prism. For analysis, an increase in signal intensity of >1 standard deviation from baseline was considered a positive response. Frequency of responding cells was determined from an average 53±19 cells for each animal.

[3] = 24 hours following I/R, listed as YM58483/2BPT2
[4] = 24 hours following I/R, listed as YM58483/BPT
[5] = 24 hours following ischemia reperfusion, mean ± S.E.
[6] = 24 hours following glycerol injection, mean ± S.E.

Cc1nnsc1C(=O)Nc1ccc(-n2nc(C(F)(F)F)cc2C(F)(F)F)cc1 [YM58483/BPT2, N-[4-[3,5-Bis(trifluoromethyl)-1H-pyrazol-1-yl]phenyl]-4-methyl-1,2,3-thiadiazole-5-carboxamide]
mRNA expression of kidney injury marker-1 (Kim-1) ([1]; 24 hours after reperfusion, 1 mg/kg p.o. pretreatment): significantly attenuated | level of renal injury as plasma creatinine (vs vehicle) ([1]; 24 hours after reperfusion, YM58483 1 mg/kg p.o. 2-3 hours prior to surgery): significantly attenuated; also recorded: significantly reduced | CD8+ cells in kidney (vs vehicle) ([1]; 24 hours following I/R): did not significantly effect | Th1 cells post-ischemia ([1]; 24 hours following I/R): did not significantly influence | Th2 cells post-ischemia ([1]; 24 hours following I/R): did not significantly influence | infiltration of B-cells in kidney ([1]; 24 hours following I/R): attenuated | infiltration of dendritic cells in kidney ([1]; 24 hours following I/R): attenuated | kidney CD4+/IL17+ cells (vs vehicle) ([1]; 24 hours following I/R): reduction was observed | reduction of total IL17 expressing cells relative to vehicle ([1]; 24 hours following I/R, 1 mg/kg p.o. pretreatment): ~78% | infiltration of total CD4+ T-cells in kidney (vs vehicle) ([1]; 24 hours following I/R, listed as YM58483/2-BPT): attenuated | CD8+ cells in kidney (vs vehicle) [1, 3]: attenuated | infiltration of total CD4+ T-cells in kidney (vs vehicle) [1, 3]: attenuated | infiltration of total CD4+ T-cells in kidney (vs vehicle) [1, 4]: significantly reduced | kidney CD4+/IL17+ cells (vs vehicle) [1, 4]: significantly reduced | CD4+ renal lymphocyte content [1, 5]: 26156 ± 4365 cells/gram | CD4+/IL-17+ cells [1, 5]: 2020 ± 731 cells/gram | CD8+ cells renal lymphocyte content [1, 5]: 8410 ± 1386 cells/gram | CD8+IL-17+ cells [1, 5]: 127 ± 23 cells/gram | Serum Creatinine [1, 5]: 3.7 ± 0.6 mg/dL | Total IL-17+ cells [1, 5]: 9334 ± 4293 cells/gram | CD4+ cells per g [2, 6]: 177606 ± 282 cells per g | CD4+/IL-17+ cells per g [2, 6]: 20622 ± 4191* cells per g | CD8+ cells per g [2, 6]: 342433 ± 76011 cells per g | CD8+/IL-17+ cells per g [2, 6]: 19711 ± 6499* cells per g | Serum Creatinine [2, 6]: 3.3 ± 0.4* mg/dl | Total IL-17+ cells per g [2, 6]: 60109 ± 21033* cells per g | rise in serum creatinine ([2]; glycerol model, 24 hours): significantly attenuated | total number of IL17+ expressing cells ([2]; glycerol model, 24 hours): significantly attenuated | percentage of Ca2+-responding cells (AKI-primed CD4+ cells): significantly attenuated
